Data: PMC3966047, “Analysis of the minimal specificity of caspase-2 and identification of Ac-VDTTD-AFC as a caspase-2-selective peptide substrate” (Bioscience Reports, 2014)
Entries after “also recorded” stand apart in the source; their conditions may differ. Read-outs that look alike come from different tables or passages of the source. The star is where a group is joined. AFC = O=c1cc(C(F)(F)F)c2ccc(N*)cc2o1; pNA = O=[N+]([O-])c1ccc(N*)cc1

Experiments:
[1] = tested on: auto-activating caspase-3 in HEK-293T cell lysate; assay: Fluorogenic peptide cleavage by lysates of HEK-293T cells expressing auto-activating caspase-3; type: biochemical, human embryonic kidney cells; conditions: for cleavage by lysates of cells expressing caspase-3 (in words): HEK-293T lysate, auto-activating caspase-3, 0.1 mM substrate, rate of fluorescence increase, three independent transfections
Method: (§1) Caspases were pre-activated for 30 min at 37°C in their preferred buffers, then diluted and mixed with fluorogenic peptide substrates. Fluorescence (excitation 410 nm, emission 500 nm) was measured every 10–60 s for up to 1 h using a FluoStar Galaxy (BMG Labtech). The maximal slope of each curve was calculated. A standard curve, using free AFC (Sigma), was used to convert fluorescence emissions into concentration of AFC produced during the cleavage reactions. Prism 5.0 software was used to determine kcat and KM from three to four independent experiments, as previously described. Ac-DEVD-AFC and Ac-VDVAD-AFC were purchased from Enzo Life Sciences. The custom substrates Ac-VDTTD-AFC and Ac-VDVPD-AFC were synthesized by 21st Century Biochemicals. 150 nM Bid or 100 nM Runx1 proteins were incubated with specified concentrations of caspases in their preferred buffers for 1 h (Runx1) or 0.5 h (Bid variants) at 37°C, then subjected to SDS–PAGE and immunoblotting with anti-Bid (#AF860 R&D Systems) or anti-His6 antibodies (#A00186 GenScript). Secondary antibodies were anti-mouse-HRP (#A9044, Sigma) or anti-goat-HRP (#6300-05, Southern Biotech). The SuperSignal West Dura Substrate (Thermo Scientific) was used to detect signals and quantitation of sub-saturated exposures was performed using a Syngene G:Box and Image Lab 3.0 software (BioRad). Linear regression was used to determine the caspase concentration, which cleaved half of each protein.
(§2) HEK-293T cells [human embryonic kidney cells expressing the large T-antigen of SV40 (simian virus 40)] were cultured, transfected, harvested and lysed as described except that protease inhibitors were not used. Each lysate was mixed with the appropriate fluorogenic substrate (0.1 mM) in caspase buffer, and fluorescence was monitored as outlined above.

[2] = tested on: caspase-2; assay: Fluorogenic peptide cleavage by purified caspase-2 (AFC release); type: biochemical; conditions: for selectivity for caspase-2 relative to caspase-3 (in words): purified caspases-2 and -3
Method: (§3) Caspases-2, -3 and -8 were purified using NiNTA resin (Qiagen) from BL21(DE3)pLysS bacteria (Novagen/Merck) transformed with pET23a–caspase-2^Δ1−149 [44], pET23a–caspase-3 [54] or pET15b–caspase-8^Δ1−216 plasmids. Induction conditions were: caspase-2, 0.4 mM IPTG (isopropyl β-D-thiogalactoside), 2 h 37°C; caspase-3, 0.2 mM IPTG, 3 h 30°C; caspase-8, 1 mM IPTG, 4 h 25°C. Caspases were active site-titrated using zVAD-fmk (Merck). ArcticExpress DE3 bacteria (Agilent Technologies) were transformed with the pET23a Bid expression plasmids described above, induced for 48 h at 10°C using 1 mM IPTG, then the His6-tagged Bid proteins were purified using NiNTA resin (Qiagen). Recombinant proteins were quantitated using the Bicinchoninic acid protein assay kit (Sigma). Runx1 proteins were synthesized using the TNT T7 quick coupled transcription/translation system (Promega) with non-radioactive methionine, using intact Runx1–pET23a plasmids as templates. The concentration of Runx1 proteins was determined by quantitative anti-His6 immunoblotting, using purified AcP35–His6 [56] as a standard.
as §1

[3] = molecular target: T1, caspase-3 (Homo sapiens, UniProt P42574); assay: Fluorogenic peptide cleavage by purified caspase-3 (AFC release); type: biochemical
T1 construct: made in house; host or cells: E. coli BL21(DE3)pLysS
T1 sequence (P42574 29-175 limits assumed): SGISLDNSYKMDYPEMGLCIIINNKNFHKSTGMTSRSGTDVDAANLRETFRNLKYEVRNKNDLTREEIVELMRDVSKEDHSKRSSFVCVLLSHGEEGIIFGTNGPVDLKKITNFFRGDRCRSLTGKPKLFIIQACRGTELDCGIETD
T1 sequence (P42574 176-277 limits assumed): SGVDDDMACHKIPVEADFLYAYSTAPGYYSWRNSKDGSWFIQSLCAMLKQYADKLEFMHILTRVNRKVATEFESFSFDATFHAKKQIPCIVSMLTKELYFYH
Method: as §3
as §1, with “150 nM Bid or 100 nM Runx1 proteins were incubated with specified concentrations of caspases in their preferred buffers for 1 h (Runx1) or 0.5 h (Bid variants) at 37°C, then subjected to SDS–PAGE and immunoblotting with anti-Bid (#AF860 R&D Systems) or anti-His6 antibodies (#A00186 GenScript). Secondary antibodies were anti-mouse-HRP (#A9044, Sigma) or anti-goat-HRP (#6300-05, Southern Biotech).” left out, “Linear regression was used to determine the caspase concentration, which cleaved half of each protein.” left out

[4] = tested on: auto-activating caspase-2 in HEK-293T cell lysate; assay: Fluorogenic peptide cleavage by lysates of HEK-293T cells expressing auto-activating caspase-2; type: biochemical, human embryonic kidney cells; conditions: for caspase-2 versus caspase-3 selectivity in cell lysates (in words): HEK-293T lysates with auto-activating caspase-2 or -3, 0.1 mM substrate
Method: as §1, §2

[5] = tested on: caspase-2; conditions: aldehyde inhibitors; cited from earlier work
Excerpt: (§4) Research into caspase-2 biology has been hampered by a dearth of selective reagents capable of distinguishing between caspases-2 and -3. Peptides and inhibitors based on the sequence VDVAD are marketed as ‘caspase-2-specific’ but also react strongly with caspase-3.

[6] = molecular target: T1, caspase-3; conditions: aldehyde inhibitors; cited from earlier work
Excerpt: as §4

[7] = tested on: caspase-2; conditions: cited from earlier work
Excerpt: (§5) Some of the confusion regarding the function of caspase-2 may stem from researchers’ use of non-specific tools for monitoring its activity and inhibition. […] Subsequent studies have confirmed the lack of specificity associated VDVAD-based tools, yet many researchers continue to employ substrates and inhibitors derived from this peptide sequence as c ...

[8] = molecular target: T1, caspase-3; conditions: compared with caspase-2; cited from earlier work
Excerpt: as §5

[9] = tested on: caspase-2; conditions: cited from earlier work; remark: listed apart in the source
Excerpt: It seems likely that identification of caspase-2 substrates may provide valuable clues to its biological role. […] Apoptotic signalling by caspase-2 has been proposed to result from its processing of the pro-apoptotic Bcl-2 relative Bid. […] Runx1 plays a critical role in haematopoiesis, and Runx1 translocations or other mutations occur frequently in myeloid leukaemias, and less commonly in other cancer types.

[10] = tested on: caspase-2; assay: Runx1 cleavage by caspase-2 (anti-His6 immunoblot); type: biochemical; conditions: 100 nM in vitro-translated Runx1, 1 h, 37°C
Method: as §3, with “Runx1 proteins were synthesized using the TNT T7 quick coupled transcription/translation system (Promega) with non-radioactive methionine, using intact Runx1–pET23a plasmids as templates.” left out
(§6) Caspases were pre-activated for 30 min at 37°C in their preferred buffers, then diluted and mixed with fluorogenic peptide substrates. Fluorescence (excitation 410 nm, emission 500 nm) was measured every 10–60 s for up to 1 h using a FluoStar Galaxy (BMG Labtech). The maximal slope of each curve was calculated. A standard curve, using free AFC (Sigma), was used to convert fluorescence emissions into concentration of AFC produced during the cleavage reactions. […]

[11] = molecular target: T1, caspase-3; assay: Runx1 cleavage by caspase-3 (anti-His6 immunoblot); type: biochemical; conditions: 100 nM in vitro-translated Runx1, 1 h, 37°C
Method: as §3, with “Runx1 proteins were synthesized using the TNT T7 quick coupled transcription/translation system (Promega) with non-radioactive methionine, using intact Runx1–pET23a plasmids as templates.” left out
as §6

[12] = tested on: caspase-8; assay: Runx1 cleavage by caspase-8 (anti-His6 immunoblot); type: biochemical; conditions: 100 nM in vitro-translated Runx1, 1 h, 37°C
Method: as §3, with “Runx1 proteins were synthesized using the TNT T7 quick coupled transcription/translation system (Promega) with non-radioactive methionine, using intact Runx1–pET23a plasmids as templates.” left out
as §6

[13] = tested on: caspase-2; assay: Bid protein cleavage by caspase-2 (anti-Bid immunoblot); type: biochemical; conditions: 150 nM Bid protein, 0.5 h, 37°C, preferred buffer, from caspase concentration cleaving half of the substrate
Method: as §3, with “Runx1 proteins were synthesized using the TNT T7 quick coupled transcription/translation system (Promega) with non-radioactive methionine, using intact Runx1–pET23a plasmids as templates.” left out
as §6

[14] = molecular target: T1, caspase-3; assay: Bid protein cleavage by caspase-3 (anti-Bid immunoblot); type: biochemical; conditions: 150 nM Bid protein, 0.5 h, 37°C
Method: as §3, with “Runx1 proteins were synthesized using the TNT T7 quick coupled transcription/translation system (Promega) with non-radioactive methionine, using intact Runx1–pET23a plasmids as templates.” left out
as §6

[15] = tested on: caspase-8; assay: Bid protein cleavage by caspase-8 (anti-Bid immunoblot); type: biochemical; conditions: 150 nM Bid protein, 0.5 h, 37°C
Method: as §3, with “Runx1 proteins were synthesized using the TNT T7 quick coupled transcription/translation system (Promega) with non-radioactive methionine, using intact Runx1–pET23a plasmids as templates.” left out
as §6

[16] = tested on: caspase-8; conditions: subsequent data; cited from earlier work
Excerpt: It seems likely that identification of caspase-2 substrates may provide valuable clues to its biological role. […] Apoptotic signalling by caspase-2 has been proposed to result from its processing of the pro-apoptotic Bcl-2 relative Bid.

[17] = preferred buffer, anti-Bid immunoblot, from caspase concentration cleaving half of the substrate

## Ac-DEVD-AFC [reference compound]
[1]
  cleavage by lysates of cells expressing caspase-3 (in words): extracts from cells expressing active caspase-3 cleaved Ac-DEVD-AFC most efficiently

## Ac-VDTTD-{AFC} [custom fluorogenic substrate synthesized by 21st Century Biochemicals]
[2]; purified caspase-2
  cleavage by caspase-2 (in words): efficiently cleaved by purified caspase-2
[2]; purified caspase-2, fold versus Ac-VDVAD-AFC
  cleavage efficiency relative to Ac-VDVAD-AFC (caspase-2): four
[2]
  selectivity for caspase-2 relative to caspase-3 (in words): better selectivity for caspase-2 relative to caspase-3 than reagents that are currently available; also recorded: exhibits enhanced caspase-2 sensitivity and specificity, relative to Ac-VDVAD-AFC
[3]
  cleavage by caspase-3 (in words): only cleaved it slightly more efficiently than Ac-VDVAD-AFC
[3]; fold versus Ac-VDVAD-AFC
  cleavage efficiency relative to Ac-VDVAD-AFC (caspase-3): 1.7 times
[4]; HEK-293T lysate, auto-activating caspase-2, 0.1 mM substrate, rate of fluorescence increase, three independent transfections
  cleavage by lysates of cells expressing caspase-2 (in words): efficiently cleaved by purified caspase-2 and auto-activating caspase-2 in mammalian cells; also recorded: lysates from cells expressing active caspase-2 cleaved Ac-VDTTD-AFC more efficiently than the other peptides
[4]
  caspase-2 versus caspase-3 selectivity in cell lysates (in words): significantly more selective for caspase-2 than the commonly used Ac-VDVAD-AFC peptide; also recorded: does not offer this degree of specificity
[4]; lysates from cells expressing caspase-2, background activity in vector transfectant lysates subtracted, 0.1 mM substrate
  VDTTDase activity relative to DEVDase activity: ~14 times
[1]
  cleavage by lysates of cells expressing caspase-3 (in words): proteolysed by lysates containing caspase-3, but at a slower rate than by lysates from cells expressing caspase-2
[1]; cells expressing active caspase-3, Ac-DEVD-AFC versus Ac-VDTTD-AFC, 0.1 mM substrate
  DEVDase activity relative to VDTTDase activity: 3.3 times

## Ac-VDVAD-aldehyde
[5]
  inhibition of caspase-2 compared with caspase-3 (in words): inhibited caspases-2 and -3 with similar potencies
[6]
  inhibition of caspase-3 compared with caspase-2 (in words): inhibited caspases-2 and -3 with similar potencies

## Ac-VDVAD-pNA
[7]
  cleavage by caspase-2 (in words): could efficiently cleave peptides containing the sequence VDVAD
[8]
  cleavage by caspase-3 (in words): caspase-3 could cleave these peptides with similar kinetics

## Ac-VDVAD-{AFC} [classical caspase-2 substrate, purchased from Enzo Life Sciences, reference compound]
[4]
  caspase-2 versus caspase-3 selectivity in cell lysates (in words): cleaved only slightly better by extracts from cells expressing caspase-2 than caspase-3

## Ac-VDVPD-aldehyde
[5]
  inhibition of caspase-2 compared with caspase-3 (in words): inhibited caspases-2 and -3 with similar potencies
[6]
  inhibition of caspase-3 compared with caspase-2 (in words): inhibited caspases-2 and -3 with similar potencies

## Ac-VDVPD-{AFC} [custom fluorogenic substrate based on the Runx1 cleavage site]
[2]; purified caspase-2
  cleavage by caspase-2 (in words): enhanced sensitivity to caspase-2 relative to Ac-VDVAD-AFC; also recorded: cleaved by caspase-2 slightly better than Ac-VDVAD
[2]
  selectivity for caspase-2 relative to caspase-3 (in words): less specific than Ac-VDVAD-AFC for caspase-2 relative to caspase-3; also recorded: lacked the sought-after selectivity for caspase-2 over caspase-3
[3]
  cleavage by caspase-3 (in words): proteolysed this substrate more efficiently than Ac-VDVAD-AFC
[4]
  caspase-2 versus caspase-3 selectivity in cell lysates (in words): cleaved at similar rates in cell lysates containing active caspases-2 or -3

## Cux1: transcription factor Cux1
[9]
  cleavage by caspase-2 (in words): efficiently cleaved

## EIF4B: translation initiation factor EIF4B
[9]; degradomics, lysates
  cleavage by caspase-2 versus other caspases (in words): more efficiently cleaved by caspase-2

## Runx1^DVPG: P1 mutant of Runx1
[10]
  Runx1 cleavage by caspase-2 (in words): yielded a larger product
[11]
  Runx1 cleavage by caspase-3 (in words): yielded a larger product
[12]
  Runx1 cleavage by caspase-8 (in words): yielded a larger product

B1: wild-type Bid: Bid protein bearing the native LQTD cleavage site (protein, UniProt P55957 1-195, looked up)
BH3-interacting domain death …: MDCEVNNGSSLRDECITNLLVFGFLQSCSDNSFRRELDALGHELPVLAPQWEGYDELQTDGNRSSHSRLGRIEADSESQEDIIRNIARHLAQVGDSMDRSIPPGLVNGLALQLRNTSRSEEDRNRDLATALEQLLQAYPRDMEKEKTMLVLALLLAKKVASHTPSLLRDVFHTTVNFINQNLRTYVRSLARNGMD
[13]
  second-order rate constant (estimate of kcat/KM), caspase-2: 3200 M⁻¹ s⁻¹
[14]; immunoblot
  Bid cleavage by caspase-3 (in words): barely sensitive to proteolysis by even high concentrations of caspase-3
[14]; [17]
  second-order rate constant (estimate of kcat/KM), caspase-3: 160 M⁻¹ s⁻¹
[15]
  processing efficiency by caspase-8 relative to caspase-2: about seven
[15]; [17]
  second-order rate constant (estimate of kcat/KM), caspase-8: 22000 M⁻¹ s⁻¹
[9]; initial results
  Bid cleavage by caspases-2 and -8 (in words): could cleave Bid with similar efficiency
[16]
  Bid cleavage by caspase-8 compared with caspase-2 (in words): the processing by caspase-8 was more efficient
